Like-named read-outs stand apart in the source and are kept apart here. *1 amine or outer side, *2 acyl side, *3 side chain or, on linkers, in order; H or OH if unused. Where a SMILES comes first, the peptide text is derived from it. Bridges are numbered along the chain shown (N, C = ends). [ ]: non-standard residue; d: D form. The star is where a group is joined. Leu(3R-O(AcLeu(3R-OH))) = CC(=O)N[C@H](C(=O)O[C@H](C(C)C)[C@H](N)C(=O)O)[C@H](O)C(C)C; Leu(3R-OH,Nα-propionyl) = CCC(=O)N[C@H](C(=O)*)[C@H](O)C(C)C; X1 = CC(C)[C@@H](O[*:3])[C@H](N[*:1])C(=O)[*:2]; NMeT = CN[C@H](C(=O)O)[C@@H](C)O; dPhLac = O=C(O)[C@H](O)Cc1ccccc1; NMeA = CN[C@@H](C)C(=O)O; NMeDha = C=C(NC)C(=O)O
What was measured:
mouse Gαq = target: T1, mouse Gαq (Mus musculus, UniProt P21279, D130A/E125D/N126V/V129Y/Y128D); experiment: Competition binding at membranes of HEK-CRISPR-Cas9-Gαq-KO cells expressing Gαq
T1 construct: expressed in transfected cells; membrane preparations
T1 sequence (P21279 1-359 E125D/N126V/Y128D/V129Y/D130A): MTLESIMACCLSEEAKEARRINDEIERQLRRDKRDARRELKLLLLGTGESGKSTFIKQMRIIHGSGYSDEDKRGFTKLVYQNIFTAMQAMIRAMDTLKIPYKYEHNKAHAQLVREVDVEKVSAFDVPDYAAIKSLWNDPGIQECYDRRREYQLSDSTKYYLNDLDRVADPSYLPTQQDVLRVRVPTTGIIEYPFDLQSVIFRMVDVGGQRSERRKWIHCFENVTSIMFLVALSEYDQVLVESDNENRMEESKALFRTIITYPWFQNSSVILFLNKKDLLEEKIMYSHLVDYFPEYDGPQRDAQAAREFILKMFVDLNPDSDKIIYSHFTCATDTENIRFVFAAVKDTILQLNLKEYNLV
Experimental: (§1) cDNAs encoding for the α‐subunits of the human G11, G14, G15 and mouse Gq guanine nucleotide‐binding proteins in a pcDNA3.1(+) vector were obtained from E. Kostenis. CRISPR/Cas9‐Gαq‐knockout (KO) HEK293 cells were from M. Yamaguchi. The protein sequences of the human and mouse Gαq proteins differ only by one amino acid in position 171 (alanine in human and serine in mouse). […]. After 16 hr, 3 ml of DMEM containing 10% FBS, 1% of a penicillin/streptomycin solution (final concentrations: penicillin = 100 U·ml^−1, streptomycin = 0.1 mg·ml^−1), and sodium butyrate (5 mM) was added to the packaging cells. They were kept at 32°C and 5% CO2 for 48 hr, during which the viral vectors containing the receptor sequence were produced and released into the surrounding medium. These were harvested, filtered ([…] filter pore diameter), and added to HEK293 cells that had previously been modified via CRISPR/Cas9 genome editing to lack Gαq expression. Polybrene solution (6 μl, 4 mg·ml^−1 in H2O, filtered) was added. After 2.5 hr, the virus‐containing medium was discarded, and DMEM supplemented with 10% FBS and 1% of a penicillin/streptomycin solution (final concentrations: penicillin = 100 U·ml^−1, streptomycin = 0.1 mg·ml^−1) was given to the cells. These were incubated for 2 days, followed by selection of successfully transfected cells with geneticin resistance by adding G418 (200 μg·ml^−1) to the medium. The cells were cultured in these media at 37°C and 10% CO2 until membrane preparations were generated.
(§2) Recombinant HEK cells were cultured to 70% of confluence. The culture medium was discarded, and cells were washed once with approximately 5 ml of PBS. Dishes were stored at −20°C until further use. After defrosting, cells were detached with a rubber scraper after adding 5‐mM Tris–HCl, 2‐mM EDTA, pH 7.4. The collected cell suspension was homogenized using an Ultra‐Turrax® for 1 min at a speed level of 4. The cell suspension was transferred into tubes and centrifuged for 10 min at 1,000 g, 4°C. The pellet (P1) was discarded, and the supernatant was centrifuged for 45 min at 48,400 g, 4°C. The resulting supernatant was discarded, and the pellet (P2) was resuspended in 50‐mM Tris–HCl, pH 7.4, and centrifuged again for 45 min at 48,400 g, 4°C. This step was repeated once again, and the suspension was subsequently homogenized using an Ultra‐Turrax® for 1 min at a speed level of 4 (IKA Laborechnik), transferred into cryovials, and stored at −80°C (for up to several months). […]
(§3) The experiments were performed in 50‐mM Tris–HCl buffer, pH 7.4. […] Non‐specific binding was determined in the presence of 5‐μM FR. […] Luma Safe® scintillation cocktail (2.5 ml) was added, and after 6 hr of incubation, the samples were counted for 1 min each, using a liquid scintillation counter (counting efficiency 53%). […]

human Gα14 = target: T2, human Gα14 (Homo sapiens, UniProt O95837); experiment: Competition binding at membranes of HEK-CRISPR-Cas9-Gαq-KO cells expressing Gα14
T2 construct: expressed in transfected cells; membrane preparations
T2 sequence (O95837 1-355): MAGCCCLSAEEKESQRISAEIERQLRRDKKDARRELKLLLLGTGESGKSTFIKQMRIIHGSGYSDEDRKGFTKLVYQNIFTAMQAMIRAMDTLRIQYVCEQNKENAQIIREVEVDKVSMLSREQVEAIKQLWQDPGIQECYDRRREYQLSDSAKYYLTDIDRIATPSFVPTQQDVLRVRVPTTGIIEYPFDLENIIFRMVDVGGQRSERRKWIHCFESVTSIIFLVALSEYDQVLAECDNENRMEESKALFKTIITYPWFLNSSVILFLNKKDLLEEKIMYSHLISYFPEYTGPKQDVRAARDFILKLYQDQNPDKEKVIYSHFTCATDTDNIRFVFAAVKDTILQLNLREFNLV
Experimental: as §1, §2, §3

[1] = system: Gq signalling via endogenously expressed M3 receptor; experiment: Calcium mobilization assay, carbachol-induced (M3 receptor) in 1321N1 astrocytoma cells; format: cell-based, human; details: Homo sapiens, versus Carbachol (EC80), M3 receptor, read-out: pIC50, inhibition of calcium mobilization (converted)
Experimental: (§4) The functional activity of YM, FR, and Ebselen as Gq protein inhibitors was determined by assessing their ability to antagonize ADP‐induced calcium mobilization in 1321N1 astrocytoma cells stably transfected with the human P2Y1 receptor, which is a Gq‐coupled receptor. In addition, the compounds' inhibitory effects on Carbachol‐induced calcium mobilization were studied in the same cell line, which endogenously express the Gq‐coupled muscarinic M3 ACh receptor. The assays were performed according to a previously described procedure (Rafehi et al., 2017) using a NOVOstar microplate reader (BMG Labtech, Offenburg, Germany).

[2] = system: Gq signalling via recombinantly expressed human P2Y1 receptor; experiment: Calcium mobilization assay, ADP-induced (P2Y1 receptor) in 1321N1 astrocytoma cells; format: cell-based; details: Homo sapiens; versus ADP (EC80), P2Y1 receptor, 1321N1 astrocytoma cells; read-out: pIC50, inhibition of calcium mobilization (converted)
Experimental: as §4

C=C1C(=O)N[C@@H](C)C(=O)N(C)[C@@H](C)C(=O)N[C@@H]([C@H](OC(=O)[C@@H](NC(C)=O)[C@H](O)C(C)C)C(C)C)C(=O)N(C)[C@@H]([C@@H](C)OC)C(=O)O[C@H](C)[C@H](NC(C)=O)C(=O)O[C@H](Cc2ccccc2)C(=O)N1C [YM, YM‐254890] (Ac-T[dPhLac][NMeDha]A[NMeA][Leu(3R-O(AcLeu(3R-OH)))][NMeT](Me); ester 1-C)
Pseudo-Bmax ± SD (mouse Gαq; YM versus [³H]PSB-16254 (5 nM), 37°C, Gq): 6.04 ± 1.43 pmol/mg | IC50 (mouse Gαq; YM versus [³H]PSB-16254 (5 nM), 37°C, Gq, read-out: pIC50 ± SD (converted)): 6.17 nM | Pseudo-Bmax ± SD (human Gα14; YM versus [³H]PSB-16254 (5 nM), 37°C, G14): 3.18 ± 0.48 pmol/mg | IC50 (human Gα14; YM versus [³H]PSB-16254 (5 nM), 37°C, G14, read-out: pIC50 ± SD (converted)): 6.61 nM | IC50 [1]: 0.891 nM | IC50 [2]: 0.955 nM

C=C1C(=O)N[C@@H](C)C(=O)N(C)[C@@H](C)C(=O)N[C@@H]([C@H](OC(=O)[C@@H](NC(=O)CC)[C@H](O)C(C)C)C(C)C)C(=O)N(C)[C@@H]([C@@H](C)OC)C(=O)O[C@H](C(C)C)[C@H](NC(C)=O)C(=O)O[C@H](Cc2ccccc2)C(=O)N1C [FR, FR900359] (Ac-[X1][dPhLac][NMeDha]A[NMeA][X1](Leu(3R-OH,Nα-propionyl))[NMeT](Me); ester 1-C)
IC50 (mouse Gαq): 13.2 nM | Pseudo-Bmax ± SD (mouse Gαq; FR versus [³H]PSB-15900 (5 nM), 37°C, Gq): 6.09 ± 0.59 pmol/mg | IC50 (human Gα14): 10 nM | Pseudo-Bmax ± SD (human Gα14; FR versus [³H]PSB-15900 (5 nM), 37°C, G14): 4.37 ± 0.71 pmol/mg | IC50 [1]: 0.741 nM | IC50 [2]: 0.692 nM

From article PMC7070167, “Cell‐permeable high‐affinity tracers for Gq proteins provide structural insights, reveal distinct binding kinetics and identify small molecule inhibitors” (British Journal of Pharmacology, 2020)
